Laboratory results as given in US20050192337A1, “Processes and polymorphs of diaryl-indolone galr3 antagonists” (priority 2002, published 2005).

Columns and labels:
Assay type in all cases: physicochemical
[1] = Differential scanning calorimetry, relative stability of forms on heating; conditions: high temperatures, DSC 1° C./min
Protocol: Differential scanning calorimetry (DSC) was performed using a TA Instruments differential scanning calorimeter 2920. The sample was placed into an aluminum DSC pan, and the weight accurately recorded. The pan was covered with a lid and left uncrimped. Each sample was equilibrated at 25° C. and heated under a nitrogen purge at a rate of 10 or 20° C./min, up to a final temperature of 270° C. or 350° C. Samples were also heated at 1 or 5° C./min up to 150° C.

[2] = Stress studies of Compound I (heat stress, XRPD of resulting solid); conditions: for Stability to heat stress: Table 7
Protocol: (§1) X-ray powder diffraction (XRPD) analyses were performed using a Shimadzu XRD-6000 X-ray powder diffractometer using Cu Kα radiation. The instrument was equipped with a fine focus X-ray tube. The tube voltage and amperage were set to 40 kV and 40 mA, respectively. The divergence and scattering slits were set at 1° and the receiving slit was set at 0.15 mm. Diffracted radiation was detected by a NaI scintillation detector. A theta-two theta continuous scan at 3°/min (0.4 sec/0.02° step) from 2.5 to 40° 2θ was used. A silicon standard was analyzed to check the instrument alignment. Data were collected and analyzed using XRD-6000 v. 4.1. Samples were prepared for analysis by placing them in a silicon sample holder or aluminum holder with silicon insert. X-ray powder diffraction (XRPD) analyses were also performed using an Inel XRG-3000 diffractometer equipped with a CPS (Curved Position Sensitive) detector with a 2θ range of 120°. Real time data were collected using Cu-Kα radiation starting at approximately 4° 2θ at a resolution of 0.03° 2θ. The tube voltage and amperage were set to 40 kV and 30 mA, respectively. The monochromator slit was set at 5 mm by 80 μm. […] Samples were prepared for analysis by packing them into thin-walled glass capillaries. Each capillary was mounted onto a goniometer head that is motorized to permit spinning of the capillary during data acquisition. The samples were analyzed for 5 min. Instrument calibration was performed using a silicon reference standard.
(§2) All three polymorphs are also non-hygroscopic, as indicated by the data in Table 8.

[3] = Slurry experiments on Compound I crystalline forms (XRPD); conditions: for Conversion upon stirring as a slurry in an organic solvent: a few hours to several days, Tables 9 and 10
Protocol: as §1, §2
Form I can be obtained in a straightforward fashion by stirring a slurry of any solid form of Compound I, and particularly Form II or III, in an organic solvent in which Compound I is partially soluble, for several hours until the material converts completely to Form I. Formation of Form I can be analyzed through DSC or, preferably, XRPD analysis. In one embodiment of the invention, a slurry of solid Compound I in an organic solvent is generated by cooling a hot, saturated solution of Compound I in an organic solvent, allowing crystals to form, then stirring the resulting slurry for several hours or a few days until the solid material converts substantially or completely to Form I. In a preferred embodiment, the hot, saturated solution of Compound I is generated in situ in the one-pot synthetic process described above. Form I can also be prepared by slurrying for several hours Compound I, Form II in a saturated methanol solution or in an appropriate solvent.

[4] = Moisture sorption/desorption (moisture balance) of Compound I forms
[5] = Interconversion experiments of Compound I (slurry of mixed forms, XRPD); conditions: 25° C.
Protocol: as §1, with “Each capillary was mounted onto a goniometer head that is motorized to permit spinning of the capillary during data acquisition.” left out, “Instrument calibration was performed using a silicon reference standard.” left out

| SMILES | Result (XRPD form after stress) ([2]; 80 C., 4 days) | Stability to heat stress [2] | XRPD Results after slurry ([3]; MeOH, ambient, 11 d) | Conversion upon stirring as a slurry in an organic solvent [3] | Moisture Balance Results: weight loss at 5% RH ([4]; 5% RH) | Moisture Balance Results: total weight gain at 95% RH [4] [% total weight gain at] | Hygroscopicity [4] | other results |
| --- | --- | --- | --- | --- | --- | --- | --- | --- |
| O=C1/C(=N\c2cccc(C(F)(F)F)c2)c2ccccc2N1c1ccccc1 [Form II, 1-phenyl-3-[[3-(trifluoromethyl)phenyl]imino]-1H-indol-2-one] | II (PO) + peak@5° 2θ | relatively stable to heat stress | I (PO) | convert to Form I | <0.1% weight loss at 5% RH, | <0.1 | – | Relative stability of forms [1]: more stable than Form I; XRPD Results after slurry ([3]; Experiment 3, MeOH, 25° C., 1 hour): II + I (minor); XRPD Results after slurry ([3]; Experiment 4, MeOH, 25° C., 1 hour): I + II; XRPD Results after slurry ([3]; Experiment 4, MeOH, 25° C., 1 hour 20 min): I + II; XRPD Results after slurry ([3]; Experiment 4, MeOH, 25° C., 1 hour 40 min): I + II (minor) |
| O=C1/C(=N\c2cccc(C(F)(F)F)c2)c2ccccc2N1c1ccccc1 [Form I, 1-phenyl-3-[[3-(trifluoromethyl)phenyl]imino]-1H-indol-2-one] | – | relatively stable to heat stress | – | remains unchanged | – | – | nonhygroscopic | Relative stability of forms [5]: more stable than either Form II or III |

Second part, led by results:

| Result (XRPD form after stress) ([2]; 80 C., 4 days) | Stability to heat stress [2] | XRPD Results after slurry ([3]; MeOH, ambient, 11 d) | Conversion upon stirring as a slurry in an organic solvent [3] | Moisture Balance Results: weight loss at 5% RH ([4]; 5% RH) | Moisture Balance Results: total weight gain at 95% RH [4] [% total weight gain at] | Hygroscopicity [4] | SMILES | other results |
| --- | --- | --- | --- | --- | --- | --- | --- | --- |
| – | – | I (PO) | – | <0.1% weight loss at 5% RH, | <0.1 | – | O=C1/C(=N\c2cccc(C(F)(F)F)c2)c2ccccc2N1c1ccccc1 [Compound I, 1-phenyl-3-[[3-(trifluoromethyl)phenyl]imino]-1H-indol-2-one] | – |
| – | – | – | – | – | 0.3 | – | O=C1C(=Nc2cccc(C(F)(F)F)c2)c2ccccc2N1c1ccccc1 (racemic) [amorphous, 1-phenyl-3-[[3-(trifluoromethyl)phenyl]imino]-1H-indol-2-one] | Result (XRPD form after stress) ([2]; 60 C./17 hours): III (LC); Moisture Balance Results: weight gain at 5% RH ([4]; 5% RH): <0.1% weight gain at 5% RH,; XRPD Results on solid after moisture balance run ([4]; after moisture balance run): amorphous |
| III (SS) | relatively stable to heat stress | – | convert to Form I | <0.1% weight loss at 5% RH, | – | nonhygroscopic | O=C1C(=Nc2cccc(C(F)(F)F)c2)c2ccccc2N1c1ccccc1 (racemic) [Form III, 1-phenyl-3-[[3-(trifluoromethyl)phenyl]imino]-1H-indol-2-one] | Result (XRPD form after stress) ([2]; 60 C., 4 days): III (SS); Result (XRPD form after stress) ([2]; 70 C., 4 days): III (SS); Moisture Balance Results: total weight gain at 95% RH ([4]; listed as III): <0.1% total weight gain at |
